These are literature values, as cited in US20080003278A1, “Food products and dietary supplements for improving mental performance” (priority 2006, published 2008).

SMILES strings stand for the structures.

The subject of this data set is epileptic seizures. The note with it: thirty-one patients participating in the study.

As for `CCOC(=O)C1=C[C@]2(CC)CCCN3CCc4c(n1c1ccccc41)[C@@H]32` [vinpocetine], the “patients in whom the frequency of epileptic seizures was reduced and, in some cases, seizures completely eliminated” value is given as “twenty of the thirty-one”.
